Results from patent US9834535B2, “Sulfamate derivative compounds for use in treating or alleviating pain” (Bio-Pharm Solutions Co., Ltd., priority 2013, dated 2017).

Assays:
[1] = test system: tail-flick withdrawal latency; assay: Tail-flick test; assay type: in vivo, ICR mice; conditions: mouse, oral
Experimental: To examine the pain relief effect of the sulfamate compounds, a tail-flick test was conducted in general pain animal model referring to Current Protocols in Neuroscience; Behavioral Neuroscience Unit 8.9.
ICR mice (male, 25-30 g; Orient Bio, Korea) were habituated before test in test room for 1 hour. Animals were fasted 2 hr before administration of compounds. Each of Compound was orally administered at the close of 150 mg/kg, 10 ul/g, bw (n=7˜10/group). All compounds were dissolved in a vehicle of 30% (v/v) PEG 400 or 20% (v/v) Tween 80. The control group was treated the vehicle without compounds.
After the administration of compounds, the mice tail were put on a tail-flick analgesia meter. To avoid tissue damage, maximal exposure time to pain stimuli was restricted to 15 s. The withdrawal latency was measured as the time to the point when each mouse response to the stimulus. The relative values compared to the control (% control) were calculated.
The relative values compared to the sham were calculated and shown in Table 12, which show effect of the compound of examples on tail-flick test in […].

STZ-induced pain model = assay: Antiallodynic activity on streptozotocin (STZ)-induced diabetic pain model (von Frey); assay type: in vivo, Sprague-Dawley rats; conditions: ip, rat, intraperitoneal, 0.5 h
Experimental: Male, Sprague-Dawley rats (200-220 g, Nara Bio, Korea) were habituated for 1 week before surgery and allowed free access to food and water throughout the experimentation. Room temperature and humidity were maintained at 24±2° C. and 50±10%, respectively.
STZ-induced diabetic pain model was established with a modified method of Rakieten et al. (1963) and Bertrand Aubel et al. (2004). All animals were fasted 4 to 6 hr prior to STZ injection. STZ (sigma, USA) was dissolved in 20 mM sodium citrate buffer, pH 5.5 (sigma, USA) and intraperitoneally injected at 75 mg/kg, 4 ul/g, bw into the rats. […]
Tactile sensitivity (Mechanical allodynia) was evaluated using von Frey monofilaments before and after treatment of the compound of Examples and animals were used withdrawal threshold value was less than 4 g. […] The tactile sensitivity for ipsilateral hind paw was measured using the up-and-down method (Dixon, 1980) with seven von Frey monofilaments (0.4, 1, 2, 4, 6, 8, and 15 g) to 3 trials. […] The 50% paw withdrawal threshold for each paw was calculated using the following formula: [Xth] log=[vFr] log+ky where [vFr] is the force of the last von Frey used k=0.2249 which is the average interval (in log units) between the von Frey monofilaments, and y is a value that depends upon the pattern of withdrawal responses (Dixon, 1980). […]

[2] = test system: Post operation-induced pain model; assay: Antiallodynic activity on post operative-induced pain model (von Frey); assay type: in vivo, Sprague-Dawley rats; conditions: ip; rat, intraperitoneal, von Frey, 0.5 h
Experimental: Male Sprague-Dawley rats′(Orient Bio, Korea), 300˜320 g, total of 201 rats were used (details in Table 7). Rats were habituated at least 3 clays before surgery and free access to food and water (room temperature and humidity were maintained at 24±2° C. and 50±10%, respectively). The process of performing the post-operation model's surgery was adapted from Brennan et al (1996). At first, rats with allodynia (threshold valueless than 8 g) were excluded in Pre-von Frey Test. During the post-operation surgery, rats were anesthetized under gaseous anesthesia with 2% isoflurane. Rats were laid face down on a plate fixed at 37° C. to prevent against hypothermia. The ipsilateral plantar aspect (left side) of the hind paw was prepared in a sterile manner with a 10% povidone-iodine solution. […]
For efficacy measure, the threshold value of group C was assigned 100% efficacy, and the percentage of the threshold values of group A compared to group C (for each different dose level) were calculated as the efficacies. Base on these efficacy values, ED50 was calculated using log fitting. […]
For pain threshold test, all animals were placed in a stainless steel meshed chamber and habituated for 30 min in the test box. The tactile sensitivity of the ipsilateral hind paw was measured using the up-and-down method (Dixon, 1980) with seven von Frey monofilaments (0.4, 1, 2, 4, 6, 8, and 15 g) using 3 trials. […]

CC1(C)O[C@@H](COS(N)(=O)=O)[C@H](c2ccccc2Cl)O1 [Example 2, ((4S,5S)-5-(2-chlorophenyl)-2,2-dimethyl-1,3-dioxolan-4-yl)methyl sulfamate]
tail-flick test: dose [1]: > 200 mg/kg | ED50 (STZ-induced pain model): 7.9 mg/kg | ED50 [2]: 1.8 mg/kg
